Assay results from patent publication US8420640B2, “Methods of treating amyloid disease using analogs of 1-(4-nitrophenyl) piperazine” (Treventis Corporation, priority 2008, dated 2013).

What was measured:
alpha-synuclein [1] = biological target: T1, alpha-synuclein (Homo sapiens, UniProt P37840); assay: alpha-synuclein aggregation inhibition (procedure similar to the ThT assay); assay type: biochemical; settings: inhibition of alpha-synuclein aggregation; read-out: A-syn (IC50/μM)
Method: (§1) The kinetic ThT assay for Aβ aggregation is similar to that of Chalifour et al (Chalifour et al, 2003, J. Biol. Chem. 278:34874-81). Briefly, pre-treated Aβ40 (40 μM in 20 mM Tris, pH 7.4), was diluted with an equal volume of 8 μM ThT in Tris (20 mM, pH 7.4, 300 mM NaCl). Aliquots of Aβ/ThT (200 μL) were added to wells of a black polystyrene 96-well plate, followed by 2 μL of a compound in DMSO (variable concentration), or DMSO alone (controls). Incubations were performed in triplicate and were taken to contain 20 μM Aβ, various concentration of compound in 20 mM Tris, pH 7.4, 150 mM NaCl, 1% DMSO. Plates were covered with clear polystyrene lids and incubated at 37° C. in a Tecan Genios microplate reader. Fluorescence readings (λex=450 nm, λem=480 nm) were taken every 15 min., after first shaking at high intensity for 15 s and allowing to settle for 10 s before each reading. Active compounds attenuated the increase in fluorescence over time that occurred in controls. By repeating this procedure over several concentrations, a mean inhibitory concentration (IC50) was measured, as given in the table below. The column “A-syn” represents a similar procedure measuring inhibition of alpha-synuclein aggregation. The column “ratio” is a reproducible assessment of potency with respect to the compound of Example 7, in which 1=potency of that compound: […]

Aβ40 = biological target: T2, Aβ40 (Homo sapiens, UniProt P05067); assay: ThT functional Aβ 1-40 aggregation assay; assay type: biochemical; settings: for IC50: 20 μM Aβ, 20 mM Tris pH 7.4, 150 mM NaCl, 1% DMSO, 37° C.; for Ratio: potency with respect to the compound of Example 7, 1=potency of that compound
T2 construct: Compounds Showing Activity Observed in a ThT Functional Aβ 1-40 Aggregation Assay
T2 sequence (P05067 672-711 limits assumed): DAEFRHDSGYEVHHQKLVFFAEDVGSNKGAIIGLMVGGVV
Method: Aβ40 (1.0 mg) was pre-treated in a 1.5 mL microfuge tube with HFIP (1 mL) and sonicated for 20 min to disassemble any pre-formed Aβ aggregates. The HFIP was removed with a stream of argon and the Aβ dissolved in Tris base (5.8 mL, 20 mM, pH ˜10). The pH was adjusted to 7.4 with concentrated HCl (˜10 μL) and the solution filtered using a syringe filter (0.2 μm) before being used.
as §1

tau protein = tau protein aggregation over time (FIG. 1); assay type: biochemical; settings: tau protein 4 μM; compound at 10 μM
beta-amyloid = beta-amyloid (Homo sapiens, UniProt P05067); settings: cited from earlier work
amyloid = assay: circular dichroism scans of amyloid with compound, T=0 to 168 hr (FIGS. 3-6); settings: scans at T=0, 24 hr, 96 hr, 120 hr
alpha-synuclein [2] = biological target: T1, alpha-synuclein; assay: alpha-synuclein aggregation inhibition (procedure similar to the ThT assay); assay type: biochemical; settings: alpha-synuclein 6 μM

SMILES: O=C(O)c1cccc(-c2ccc([N+](=O)[O-])c(Nc3ccccc3)c2)c1 [drawing 149]
- IC50 (alpha-synuclein [1]): 10 µM
- IC50 (Aβ40): 9.23 µM
- Ratio (Aβ40): 2.3

SMILES: CCCNc1cc(N2CCN(C(=O)c3ccccc3)CC2)ccc1[N+](=O)[O-] [Example 6, (4-(4-nitro-3-(propylamino)phenyl)piperazin-1-yl)(phenyl)methanone]
- ability to inhibit the aggregation of tau protein (tau protein): inhibit the aggregation of tau protein

SMILES: Oc1ccc(C=Cc2cc(O)cc(O)c2)cc1 [resveratrol]
- effective concentration for inhibition of beta-amyloid aggregation (beta-amyloid): 5.6 µM

SMILES: CN(C)c1ccc(N2CCN(C(=O)c3ccccc3)CC2)cc1Nc1ccccc1 [drawing 157]
- IC50 (alpha-synuclein [1]): ~7 µM
- IC50 (Aβ40): 3.5 µM
- Ratio (Aβ40): 11

SMILES: O=C(c1ccccc1)N1CCN(c2ccc([N+](=O)[O-])c(Nc3ccccc3)c2)CC1 [Example 7, (4-(4-nitro-3-(phenylamino)phenyl)piperazin-1-yl)(phenyl)methanone]
- IC50 (alpha-synuclein [1]): 6.34 µM
- ability to inhibit the aggregation of tau protein (tau protein): inhibit the aggregation of tau protein
- IC50 (Aβ40): 0.85 µM
- Ratio (Aβ40): 1

SMILES: CCCNc1cc(N2CCN(C(=O)c3ccccc3)CC2)ccc1[N+](=O)[O-] [drawing 105]
- IC50 (alpha-synuclein [1]): 142 µM
- IC50 (Aβ40): 2.5 µM
- Ratio (Aβ40): 0.34

SMILES: Nc1ccc(-c2cccc(C(=O)O)c2)cc1Nc1ccccc1
- IC50 (alpha-synuclein [1]): 45 µM
- IC50 (Aβ40): 26.6 µM
- Ratio (Aβ40): 2.5

SMILES: O=C(O)c1cccc(-c2ccc([N+](=O)[O-])c(NCc3ccccc3)c2)c1 [drawing 139]
- IC50 (alpha-synuclein [1]): 8 µM
- IC50 (Aβ40): 1.47 µM
- Ratio (Aβ40): 2.85

SMILES: CN(C)c1ccc(N2CCN(C(=O)c3ccccc3)CC2)cc1Nc1ccccc1 [Example 34, (4-(4-(dimethylamino)-3-(phenylamino)phenyl)piperazin-1-yl)(phenyl)methanone]
- circular dichroism: effect on amyloid structure (amyloid): keeps amyloid from entering an aggregated structure

SMILES: CN(C)c1cc([N+](=O)[O-])ccc1N1CCN(C(=O)c2ccccc2)CC1 [Example 25, N,N-dimethyl-2-(4-benzoylpiperazin-1-yl)-5-nitrobenzenamine]
- circular dichroism: effect on amyloid structure (amyloid): keeps amyloid from entering an aggregated structure

SMILES: Nc1ccc(N2CCN(C(=O)c3ccccc3)CC2)cc1N(Cc1ccccc1)c1ccccc1
- IC50 (Aβ40): 107 µM
- Ratio (Aβ40): 0.35

SMILES: O=[N+]([O-])c1ccc(N2CCN(Cc3ccccc3)CC2)cc1Nc1ccccc1
- IC50 (Aβ40): > 50 µM

SMILES: O=C(c1ccccc1)N1CCN(c2ccc([N+](=O)[O-])c(NCc3ccccc3)c2)CC1
- IC50 (alpha-synuclein [1]): 51 µM
- IC50 (Aβ40): 10 to 20 µM
- Ratio (Aβ40): 0.09

SMILES: CC(=O)Nc1cc([N+](=O)[O-])ccc1N1CCN(C(=O)c2ccccc2)CC1
- IC50 (Aβ40): 105 µM
- Ratio (Aβ40): 0.04

SMILES: CN1CCN(c2ccc([N+](=O)[O-])c(NCc3ccccc3)c2)CC1 [Example 4, N-benzyl-5-(4-methylpiperazin-1-yl)-2-nitrobenzenamine]
- inhibition at 10 µM (alpha-synuclein [2]; compound at 10 μM): 50%
- inhibition of aggregation of alpha-synuclein (alpha-synuclein [2]; compound at 50 μM): full inhibition
- ability to inhibit the aggregation of tau protein (tau protein): inhibit the aggregation of tau protein

SMILES: O=C(c1ccccc1)N1CCN(c2ccc([N+](=O)[O-])cc2NCc2ccccc2)CC1
- IC50 (Aβ40): 18 µM
- Ratio (Aβ40): 0.22

SMILES: O=C(Nc1ccccc1)c1ccc(-c2ccc([N+](=O)[O-])c(NCc3ccccc3)c2)cc1
- IC50 (Aβ40): 217 µM
- Ratio (Aβ40): 0.07

SMILES: O=[N+]([O-])c1ccc(N2CCOCC2)cc1Nc1ccccc1
- IC50 (Aβ40): 23 µM
- Ratio (Aβ40): 0.40

SMILES: O=C(O)c1cccc(-c2ccc([N+](=O)[O-])c(NCc3ccccc3)c2)c1 [Example 54, 3′-(benzylamino)-4′-nitrophenyl-3-carboxylic acid]
- circular dichroism: effect on amyloid structure (amyloid): keeps amyloid from entering an aggregated structure

SMILES: CCOC(=O)C1CCN(c2ccc([N+](=O)[O-])cc2C(=O)c2ccc(Cl)cc2)CC1
- IC50 (Aβ40): > 20 µM

SMILES: CN(c1ccccc1)c1cc(N2CCN(C(=O)c3ccccc3)CC2)ccc1[N+](=O)[O-]
- IC50 (alpha-synuclein [1]): 5 µM
- IC50 (Aβ40): 9.64 µM
- Ratio (Aβ40): 0.9

SMILES: O=C(Nc1ccccc1)C1CCN(c2ccc([N+](=O)[O-])c(NCc3ccccc3)c2)CC1
- IC50 (Aβ40): 544 µM
- Ratio (Aβ40): 0.05

SMILES: CNc1ccc(N2CCN(C(=O)c3ccccc3)CC2)cc1Nc1ccccc1
- IC50 (Aβ40): 2.29 µM
- Ratio (Aβ40): 4.4

SMILES: CS(=O)(=O)N1CCN(c2ccc([N+](=O)[O-])c(Nc3ccccc3)c2)CC1
- IC50 (Aβ40): > 50 µM

SMILES: O=C(O)c1cccc(-c2ccc([N+](=O)[O-])c(Nc3ccccc3)c2)c1 [Example 46, 4′-nitro-3′-(phenylamino) biphenyl-3-carboxylic acid]
- circular dichroism: effect on amyloid structure (amyloid): keeps amyloid from entering an aggregated structure

SMILES: CN1CCN(c2ccc([N+](=O)[O-])c(NCc3ccccc3)c2)CC1 [drawing 103]
- IC50 (alpha-synuclein [1]): 11.6 µM
- IC50 (Aβ40): 9 µM
- Ratio (Aβ40): 0.1

SMILES: NC(=O)c1ccc(N2CCN(C(=O)c3ccccc3)CC2)cc1NCc1ccccc1
- IC50 (Aβ40): 265 µM
- Ratio (Aβ40): 0.03

SMILES: O=C(c1ccccc1)N1CCN(c2ccc(NCCO)c(Nc3ccccc3)c2)CC1
- IC50 (Aβ40): 90 µM
- Ratio (Aβ40): 0.1

SMILES: CC(=O)Nc1cc(N2CCN(C(=O)c3ccccc3)CC2)ccc1[N+](=O)[O-]
- IC50 (Aβ40): 44 µM
- Ratio (Aβ40): 0.19

SMILES: O=C(NCc1ccccc1)c1ccc(-c2ccc([N+](=O)[O-])c(NCc3ccccc3)c2)cc1
- IC50 (Aβ40): 42 µM
- Ratio (Aβ40): 0.11

SMILES: O=C(Nc1cc([N+](=O)[O-])ccc1N1CCN(C(=O)c2ccccc2)CC1)c1ccccc1
- IC50 (Aβ40): 1040 µM
- Ratio (Aβ40): 0.01

SMILES: CN(C)c1cc([N+](=O)[O-])ccc1N1CCN(C(=O)c2ccccc2)CC1 [drawing 150]
- IC50 (alpha-synuclein [1]): 15 µM
- IC50 (Aβ40): 27 µM
- Ratio (Aβ40): 0.8

SMILES: CCNC(=O)c1ccc(N2CCN(C(=O)c3ccccc3)CC2)cc1NCc1ccccc1
- IC50 (Aβ40): 66.2 µM
- Ratio (Aβ40): 0.13

SMILES: O=C(NCc1ccccc1)c1cccc(-c2ccc([N+](=O)[O-])c(NCc3ccccc3)c2)c1
- IC50 (Aβ40): 14900 µM
- Ratio (Aβ40): 0

SMILES: CN(C)C(=O)N1CCN(c2ccc([N+](=O)[O-])c(Nc3ccccc3)c2)CC1
- IC50 (Aβ40): 8.4 µM
- Ratio (Aβ40): 0.72

SMILES: COc1ccc(N2CCN(C(=O)c3ccccc3)CC2)cc1Nc1ccccc1
- IC50 (Aβ40): 238 µM
- Ratio (Aβ40): 0.04

SMILES: O=C(Nc1cc(N2CCN(C(=O)c3ccccc3)CC2)ccc1[N+](=O)[O-])c1ccccc1
- IC50 (Aβ40): 178 µM
- Ratio (Aβ40): 0.05

SMILES: O=C(c1ccccc1)N1CCN(c2ccc([N+](=O)[O-])c(Oc3ccccc3)c2)CC1
- IC50 (Aβ40): > 50 µM

SMILES: CN(C)c1cc(N2CCN(C(=O)c3ccccc3)CC2)ccc1[N+](=O)[O-]
- IC50 (alpha-synuclein [1]): 4 µM
- IC50 (Aβ40): 25 µM
- Ratio (Aβ40): 0.88

SMILES: CC(=O)Nc1ccc(N2CCN(C(=O)c3ccccc3)CC2)cc1Nc1ccccc1
- Ratio (Aβ40): 0.21

SMILES: COC(=O)c1ccc(N2CCN(C(=O)c3ccccc3)CC2)cc1NCc1ccccc1
- IC50 (Aβ40): 174 µM
- Ratio (Aβ40): 0.14

SMILES: COc1ccc(C(=O)N2CCN(c3ccc([N+](=O)[O-])c(NCc4ccco4)c3)CC2)cc1OC
- IC50 (Aβ40): > 20 µM

SMILES: O=C(O)c1ccc(-c2ccc([N+](=O)[O-])c(NCc3ccccc3)c2)cc1
- IC50 (Aβ40): 184 µM
- Ratio (Aβ40): 0.02
